{"source": "patent US8486919B2", "about": "“4-alkylresorcinol derivative and external preparation for skin containing the same” (Shiseido Company, Ltd., priority 2010, dated 2013)", "key": {"Mouse B16 melanoma cells [1]": {"tested_on": "Mouse B16 melanoma cells", "test": "Melanin production inhibition test", "format": "cell-based", "conditions": "3 days, ratio to solvent-only group", "experimental": "(§1) The melanin production inhibitory effect and the cytotoxicity was studied according to the following method.\n(§2) (1) Inoculation of Cells and Addition of Test Substances\n(§3) Mouse B16 melanoma cells were inoculated in a six well plate at 100,000 cells/well. The next day, test substance solutions (solvent: dimethylsulfoxide) were added thereto and then subjected to the melanin production inhibition test and cytotoxicity test.\n(3) Melanin Production Inhibition Test\nThree days after the addition of the test substance solution, the medium was removed by aspiration. The cells were washed with a buffer (50 mM phosphate buffer, pH6.8), and then lysed by addition of 1M NaOH to measure an absorbance at 475 nm. Using the value thus measured as a relative value of the melanin amount, a ratio of the melanin amount (%) of the test substance-added group to the test substance-absent group (group in which only the solvent was added) was calculated. The lower the ratio of the melanin amount, the higher the melanin production-inhibitory effect."}, "Mouse B16 melanoma cells [2]": {"tested_on": "Mouse B16 melanoma cells", "test": "Cell proliferation test (cytotoxicity test, Alamar Blue)", "format": "cell-based", "conditions": "3 days, ratio to solvent-only group", "experimental": "as §1, §2, §3\n(2) Cell Proliferation Test\nThree days after the addition of the test substance solution, the medium was removed by aspiration. Then 1 mL of EMEM medium containing 10% Alamar Blue solution was added, and a reaction was allowed to proceed at 37° C. After 30 minutes, 100 μL of the reaction mixture was transferred to a 96 well plate and fluorescence was measured at an excitation wavelength of 544 nm and a measurement wavelength of 590 nm. Using the value thus measured as a relative value of cell count, a ratio of the cell count (% cell count) of the test substance-added group to the test substance-absent group (group in which only the solvent was added) was calculated. The higher the % cell count, the lower the cytotoxicity."}, "[3]": {"conditions": "final concentration of test compound 2.0 μM"}, "[4]": {"conditions": "final concentration of test compound 6.6 μM"}, "[5]": {"conditions": "final concentration of test compound 66 μM"}, "[6]": {"conditions": "final concentration of test compound 2.2 μM"}, "[7]": {"conditions": "final concentration of test compound 22 μM"}, "[8]": {"conditions": "final concentration of test compound 220 μM"}, "[9]": {"conditions": "final concentration of test compound 0.9 μM"}, "[10]": {"conditions": "final concentration of test compound 8.5 μM"}, "[11]": {"conditions": "final concentration of test compound 28 μM"}, "[12]": {"conditions": "final concentration of test compound 1.6 μM"}, "[13]": {"conditions": "final concentration of test compound 16 μM"}, "[14]": {"conditions": "final concentration of test compound 52 μM"}, "[15]": {"conditions": "final concentration of test compound 1.0 μM"}, "[16]": {"conditions": "final concentration of test compound 10 μM"}, "[17]": {"conditions": "final concentration of test compound 33 μM"}, "[18]": {"conditions": "final concentration of test compound 9.6 μM"}, "[19]": {"conditions": "final concentration of test compound 32 μM"}}, "data": [{"compound": "CC(C)c1ccc(O)cc1O", "note": "[Comparative Compound 2, 4-isopropylresorcinol]", "values": [{"measurement": "Melanin Amount Ratio (%)", "setting": "Mouse B16 melanoma cells [1]; [3]", "value": 32, "unit": "%"}, {"measurement": "Melanin Amount Ratio (%)", "setting": "Mouse B16 melanoma cells [1]; [4]", "value": 17, "unit": "%"}, {"measurement": "Melanin Amount Ratio (%)", "setting": "Mouse B16 melanoma cells [1]; [5]", "value": 12, "unit": "%"}, {"measurement": "Cell Count (%)", "setting": "Mouse B16 melanoma cells [2]; [3]", "value": 99, "unit": "%"}, {"measurement": "Cell Count (%)", "setting": "Mouse B16 melanoma cells [2]; [4]", "value": 97, "unit": "%"}, {"measurement": "Cell Count (%)", "setting": "Mouse B16 melanoma cells [2]; [5]", "value": 98, "unit": "%"}]}, {"compound": "CCc1ccc(O)cc1O", "note": "[Comparative Compound 1, 4-ethylresorcinol]", "values": [{"measurement": "Melanin Amount Ratio (%)", "setting": "Mouse B16 melanoma cells [1]; [6]", "value": 69, "unit": "%"}, {"measurement": "Melanin Amount Ratio (%)", "setting": "Mouse B16 melanoma cells [1]; [7]", "value": 24, "unit": "%"}, {"measurement": "Melanin Amount Ratio (%)", "setting": "Mouse B16 melanoma cells [1]; [8]", "value": 16, "unit": "%"}, {"measurement": "Cell Count (%)", "setting": "Mouse B16 melanoma cells [2]; [6]", "value": 101, "unit": "%"}, {"measurement": "Cell Count (%)", "setting": "Mouse B16 melanoma cells [2]; [7]", "value": 102, "unit": "%"}, {"measurement": "Cell Count (%)", "setting": "Mouse B16 melanoma cells [2]; [8]", "value": 93, "unit": "%"}]}, {"compound": "O=P(O)(O)Oc1ccc(C2CCCCC2)c(OP(=O)(O)O)c1", "note": "[Compound 3, 1,3-bisphosphonooxy-4-cyclohexylbenzene]", "values": [{"measurement": "Melanin Amount Ratio (%)", "setting": "Mouse B16 melanoma cells [1]; [9]", "value": 48, "unit": "%"}, {"measurement": "Melanin Amount Ratio (%)", "setting": "Mouse B16 melanoma cells [1]; [10]", "value": 20, "unit": "%"}, {"measurement": "Melanin Amount Ratio (%)", "setting": "Mouse B16 melanoma cells [1]; [11]", "value": 15, "unit": "%"}, {"measurement": "Cell Count (%)", "setting": "Mouse B16 melanoma cells [2]; [9]", "value": 102, "unit": "%"}, {"measurement": "Cell Count (%)", "setting": "Mouse B16 melanoma cells [2]; [10]", "value": 105, "unit": "%"}, {"measurement": "Cell Count (%)", "setting": "Mouse B16 melanoma cells [2]; [11]", "value": 101, "unit": "%"}]}, {"compound": "Oc1ccc(C2CCCCC2)c(O)c1", "note": "[Comparative Compound 3, 4-cyclohexylresorcinol]", "values": [{"measurement": "Melanin Amount Ratio (%)", "setting": "Mouse B16 melanoma cells [1]; [12]", "value": 43, "unit": "%"}, {"measurement": "Melanin Amount Ratio (%)", "setting": "Mouse B16 melanoma cells [1]; [13]", "value": 22, "unit": "%"}, {"measurement": "Melanin Amount Ratio (%)", "setting": "Mouse B16 melanoma cells [1]; [14]", "value": 17, "unit": "%"}, {"measurement": "Cell Count (%)", "setting": "Mouse B16 melanoma cells [2]; [12]", "value": 99, "unit": "%"}, {"measurement": "Cell Count (%)", "setting": "Mouse B16 melanoma cells [2]; [13]", "value": 98, "unit": "%"}, {"measurement": "Cell Count (%)", "setting": "Mouse B16 melanoma cells [2]; [14]", "value": 76, "unit": "%"}]}, {"compound": "CCc1ccc(OP(=O)(O)O)cc1OP(=O)(O)O", "note": "[Compound 1, 1,3-bisphosphonooxy-4-ethylbenzene]", "values": [{"measurement": "Melanin Amount Ratio (%)", "setting": "Mouse B16 melanoma cells [1]; [15]", "value": 62, "unit": "%"}, {"measurement": "Melanin Amount Ratio (%)", "setting": "Mouse B16 melanoma cells [1]; [16]", "value": 25, "unit": "%"}, {"measurement": "Melanin Amount Ratio (%)", "setting": "Mouse B16 melanoma cells [1]; [17]", "value": 16, "unit": "%"}, {"measurement": "Cell Count (%)", "setting": "Mouse B16 melanoma cells [2]; [15]", "value": 101, "unit": "%"}, {"measurement": "Cell Count (%)", "setting": "Mouse B16 melanoma cells [2]; [16]", "value": 108, "unit": "%"}, {"measurement": "Cell Count (%)", "setting": "Mouse B16 melanoma cells [2]; [17]", "value": 113, "unit": "%"}]}, {"compound": "CC(C)c1ccc(OP(=O)(O)O)cc1OP(=O)(O)O", "note": "[Compound 2, 1,3-bisphosphonooxy-4-isopropylbenzene]", "values": [{"measurement": "Melanin Amount Ratio (%)", "setting": "Mouse B16 melanoma cells [1]; [15]", "value": 47, "unit": "%"}, {"measurement": "Melanin Amount Ratio (%)", "setting": "Mouse B16 melanoma cells [1]; [18]", "value": 16, "unit": "%"}, {"measurement": "Melanin Amount Ratio (%)", "setting": "Mouse B16 melanoma cells [1]; [19]", "value": 13, "unit": "%"}, {"measurement": "Cell Count (%)", "setting": "Mouse B16 melanoma cells [2]; [15]", "value": 99, "unit": "%"}, {"measurement": "Cell Count (%)", "setting": "Mouse B16 melanoma cells [2]; [18]", "value": 95, "unit": "%"}, {"measurement": "Cell Count (%)", "setting": "Mouse B16 melanoma cells [2]; [19]", "value": 103, "unit": "%"}]}]}
